The experiment has as its system 874868-142-R-J2-PDC complex spheroids, growth % test/control. The experiment in a line: Anticancer human tumor 874868-142-R-J2-PDC patient-derived head and neck squamous carcinoma cell line growth inhibition [CLK]. The settings on record: for viability, T/C: stronger effect = lower value; for IC50: curve of compound. From the text:
A high-throughput screen of multi-cell type tumor spheroids was designed to identify active combinations of […] and targeted small molecules. Complex spheroids include a stromal component modeled by human endothelial cells (HUVEC) and fibroblasts modeled by human mesenchymal stem cells (MSCs). The concentration ranges selected for each drug and investigational agent were based upon clinically achievable concentrations if the clinical Cmax of the agent was known.
Compounds. The drugs and investigational agents: cirtuvivint (SM08502; NSC835563), CC-671 (NSC850746), vemurafenib (NSC761431), tapotoclax (NSC804041), sotorasib (NSC818433), adagrasib (NSC831453), MRTX-1133 (NSC836407), BAY2416964 (NSC825713), copanlisib (NSC816437), inavolisib (NSC800729), abemaciclib (NSC768073), osimertinib (NSC779217), entinostat (NSC756642), eltanexor (KPT-8602, NSC794443), venetoclax (NSC766270), ceralasertib (NSC777638), bortezomib (NSC756655), olaparib (NSC753686), talazoparib (NSC767125), alisertib (NSC759677), peposertib (NSC802822), gemcitabine (NSC613327), 5-fluorouracil (NSC19893), SN-38 (NSC673596), oxaliplatin (NSC266046), paclitaxel (NSC125973), and doxorubicin (NSC123127), were obtained from the National Cancer Institute (NCI) Developmental Therapeutics Program Chemical Repository. The FDA-approved anticancer drug set is available from the Developmental Therapeutics Program at https://dtp.cancer.gov/organization/dscb/obtaining/available plates.htm. […] The stock solutions were prepared in dimethyl sulfoxide (DMSO, Sigma-Aldrich, St. Louis, MO, cat. D2650), except for the platinum complexes which were prepared in saline (Quality Biological, Gaithersburg, MD, cat. 114-055-101), at 800-fold the tested concentration and stored at -70 degrees C prior to their use. All drugs and investigational agents were tested over a range starting from a high concentration at or near the clinical Cmax and decreasing in half-log increments. If the clinical Cmax for an agent had not been determined, the highest concentration tested was 10 microM.
Cell Culture. All cells were maintained in an incubator at 37 degrees C and 5% CO2 with 95% humidity. The PDC lines were cultured according to standard operating procedures established by the NCI PDMR. Briefly, all PDCs were thawed and cultured in Matrigel-coated flasks prepared with a working solution of 1X Ham's F-12 nutrient mix, without supplementation (Invitrogen, Waltham, MA, cat. 11765054), 100 U/mL penicillin-streptomycin (Invitrogen, cat. 15140122), and 2.5% Matrigel (Corning Inc., Corning, NY, cat. 354248) for the first three passages. The 947758-054-R-J2-PDC line was cultured in 6B/Colon 1A media, which includes advanced DMEM/F-12 (Thermo Fisher Scientific, cat. 12634028), 10 mM HEPES (Thermo Fisher Scientific, cat. 15630080), 1X GlutaMAX supplement (Thermo Fisher Scientific, cat. 35050061), 0.1 mg/mL primocin (InvivoGen, cat. ant-pm-2), 10% defined fetal bovine serum, heat inactivated (HyClone Laboratories Inc., cat. SH30070.03HI), 1.25 mM N-Acetyl-L-cysteine (Sigma-Aldrich, cat. A9165), 10 mM nicotinamide (Sigma-Aldrich, cat. N0636), 1X B-27 supplement (Thermo Fisher Scientific, cat. 17504044), 1X N-2 supplement (Thermo Fisher Scientific, cat. 17502048), and 10 microM Y-27632 dihydrochloride (Tocris Bioscience, cat. 1254). The 876862-298-R-J1-PDC was cultured in 6E media, which includes all 6B/Colon 1A media components plus 50% L-WRN conditioned media (ATCC, cat. CRL-3276), 50 ng/mL recombinant human EGF recombinant protein (hEGF; Thermo Fisher Scientific, cat. PHG0311), 10 ng/mL recombinant human fibroblast growth factor 10 (hGFG-10; PeproTech, cat. 100-26), 1 ng/mL recombinant human fibroblast growth factor 2 (hFGF-2; PeproTech, cat. 100-18B), and 1 µM prostaglandin E2 (PGE2; Tocris, cat. 2296). The 227483-062-R1-J1-PDC line was cultured in Panc media, containing all 6E components except hFGF-2, with the addition of 500 nM SB-431542 (Selleckchem, cat. S1067) and 10 nM gastrin (Tocris, cat. 3006). […]

Molecules are shown by their SMILES. “And” between values parts separate entries of the source, which are not always exact repeats. Equal entries are not always repeated.

A word on the viability, T/C: it is the ratio of treated to control. As usually defined, the IC50 is the midpoint of a concentration-inhibition curve.
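Note: spheroids exposed to the compounds for 7 days.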

Turning to `C#Cc1c(F)ccc2cc(O)cc(-c3ncc4c(N5CC6CCC(C5)N6)nc(OCC56CCCN5CC(F)C6)nc4c3F)c12` (stereo unspecified), the IC50 is 9.28 µM and > 10 µM. For the setting “compound 0.0316 µM”, the viability, T/C is 87.8% and 104%. Also, the viability, T/C (compound 0.1 µM) was 90.5% and 95.1%. Where the note is “compound 0.316 µM”, the viability, T/C was 85.1% and 93.7%. Further, the viability, T/C (compound 1 µM) was 82.3% and 61%. Moreover, the viability, T/C (compound 3.16 µM) is 61.4% and 59%. The viability, T/C (compound 10 µM) was 49.3% and 46%.

For `C=C(F)C(=O)N1CCN(c2nc(OCC3CCCN3C)nc3c2CCN(c2cccc4cccc(Cl)c24)C3)CC1CC#N` (stereo unspecified), the IC50 was 3.2 µM and 4.14 µM. Also, the viability, T/C (compound 0.0316 µM) is 81.4% and 94.5%. The viability, T/C (compound 0.1 µM) was 95.2% and 103%. For the same compound, the viability, T/C (compound 0.316 µM) was 76.2% and 82.3%. Also, the viability, T/C (compound 1 µM) is 68.4% and 87.2%. Besides, the viability, T/C (compound 3.16 µM) was 53.2% and 64.6%. Further, the viability, T/C (compound 10 µM) was 1.63% and 4.44%.

As to `C=CC(=O)N1CCN(c2nc(=O)n(-c3c(C)ccnc3C(C)C)c3nc(-c4c(O)cccc4F)c(F)cc23)C(C)C1` (stereo unspecified), the IC50 is above 10 µM. Also, under “compound 0.0316 µM”, the viability, T/C was 109% and 92.4%. Also, the viability, T/C (compound 0.1 µM) is 84.9% and 96%. Moreover, the viability, T/C (compound 0.316 µM) was 109% and 104%. For the same compound, the viability, T/C (compound 1 µM) was 119% and 104%. Also, for the setting “compound 3.16 µM”, the viability, T/C is 133% and 131%. For the same compound, under “compound 10 µM”, the viability, T/C is 114% and 88.2%.

As for `C=CC(=O)Nc1cc(Nc2nccc(-c3cn(C)c4ccccc34)n2)c(OC)cc1N(C)CCN(C)C`, the IC50 is 0.0835 µM and 0.0852 µM. Further, the viability, T/C (compound 0.000949 µM) was 103% and 99.9%. Also, for the setting “compound 0.003 µM”, the viability, T/C is 99.5% and 112%. In addition, the viability, T/C (compound 0.00949 µM) was 81.5% and 83.4%. Further, where the note is “compound 0.03 µM”, the viability, T/C is 83.7% and 76.9%. For the same compound, the viability, T/C (compound 0.0949 µM) is 42.4% and 47.1%. Moreover, the viability, T/C (compound 0.3 µM) is 24.2% and 20.6%.

For the compound `CC(C)CC(NC(=O)C(Cc1ccccc1)NC(=O)c1cnccn1)B(O)O` (stereo unspecified), the IC50 is 0.00641 µM and 0.00545 µM. For the same compound, the viability, T/C (compound 0.000949 µM) was 102% and 92.4%. Besides, for the setting “compound 0.003 µM”, the viability, T/C is 112% and 103%. In addition, for the setting “compound 0.00949 µM”, the viability, T/C was 20.4% and 5.73%. The viability, T/C (compound 0.03 µM) is 3.18% and 1.36%. Besides, where the note is “compound 0.0949 µM”, the viability, T/C was 0.29% and 1.25%. Further, the viability, T/C (compound 0.3 µM) is 0.24% and 4.02%.

As to `CC(CO)NC(=O)c1cc(-c2ccc(Cl)cc2)nn(-c2cnn(C)c2)c1=O` (stereo unspecified), the half-maximal inhibitory concentration (IC50) was above 10 µM. Where the note is “compound 0.0316 µM”, the viability, T/C is 102% and 93.8%. Besides, the viability, T/C (compound 0.1 µM) is 95.6% and 100%. For the same compound, the viability, T/C (compound 0.316 µM) is 97.7% and 89.3%. In addition, the viability, T/C (compound 1 µM) was 101% and 94.3%. Also, the viability, T/C (compound 3.16 µM) was 102% and 94.3%. Under “compound 10 µM”, the viability, T/C was 95.6% and 99.3%.

As for `CC(Nc1ccc2c(c1)OCCn1cc(N3C(=O)OCC3C(F)F)nc1-2)C(N)=O` (stereo unspecified), the IC50 amounted to 0.0824 µM. For the same compound, where the note is “compound 0.0316 µM”, the viability, T/C is 89.2%. Moreover, under “compound 0.1 µM”, the viability, T/C was 38.7%. The viability, T/C (compound 0.316 µM) was 28.3%. The viability, T/C (compound 1 µM) is 23.4%. For the same compound, the viability, T/C (compound 3.16 µM) was 13.5%. For the same compound, the viability, T/C (compound 10 µM) was 13.2%.

Consider `CC1(C)CCC(CN2CCN(c3ccc(C(=O)NS(=O)(=O)c4ccc(NCC5CCOCC5)c([N+](=O)[O-])c4)c(Oc4cnc5[nH]ccc5c4)c3)CC2)=C(c2ccc(Cl)cc2)C1`, for which the IC50 is > 10 µM and 8.72 µM. Further, where the note is “compound 0.0316 µM”, the viability, T/C is 79.2% and 90.1%. In addition, the viability, T/C (compound 0.1 µM) is 104% and 95.1%. Under “compound 0.316 µM”, the viability, T/C was 97.9% and 100%. Moreover, the viability, T/C (compound 1 µM) was 101% and 91.3%. Besides, the viability, T/C (compound 3.16 µM) was 93% and 97.6%. Further, for the setting “compound 10 µM”, the viability, T/C was 84.1% and 44%.
